According to patent publication US12052991B2, “Substituted pyridinyloxybenzenes and salts thereof and use thereof as herbicidal agents” (Bayer Aktiengesellschaft, priority 2018, dated 2024):

Legend:
Format in all cases: in vivo
[1] = system: Poa annua (POAAN); assay: Herbicidal pre-emergence action, test C (Table C3); details: visual scoring after about 3 weeks, 100% = plants have died, 0% = like control plants
Procedure, shortened: (§1)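 Visual percentage damage relative to untreated pots (0% = like control, 100% = dead) was rated roughly 3 weeks after pre-emergence treatment in the greenhouse. Sandy loam pots were sown with weed seeds and covered with soil. The surface was sprayed with WP or EC formulations plus 0.5% additive at 600 L/ha, delivering 1280 or 320 g/ha.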

[2] = system: Setaria viridis (SETVI); assay: Herbicidal pre-emergence action, test C (Table C4); details: visual scoring after about 3 weeks, 100% = plants have died, 0% = like control plants
Procedure, shortened: as §1

[3] = system: Amaranthus retroflexus (AMARE); assay: Herbicidal post-emergence action (Table B6); details: visual rating about 3 weeks after treatment, 100% = plants have died, 0% = like control plants
Procedure, shortened: (§2)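 Activity was scored visually against untreated plants roughly 3 weeks after treatment, 0% meaning like control and 100% plant death. Application was post-emergence onto green parts at the one-leaf stage, as aqueous suspension/emulsion with 0.5% additive, 600 l/ha, delivering 1280 or 320 g/ha to greenhouse plants in sandy loam.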

[4] = system: Lolium rigidum (LOLRI); assay: Herbicidal pre-emergence action, test C (Table C2); details: visual scoring after about 3 weeks, 100% = plants have died, 0% = like control plants
Procedure, shortened: as §1

[5] = system: Abutilon theophrasti (ABUTH); assay: Herbicidal pre-emergence action, test C (Table C5); details: visual scoring after about 3 weeks, 100% = plants have died, 0% = like control plants
Procedure, shortened: as §1

[6] = system: Amaranthus retroflexus (AMARE); assay: Herbicidal pre-emergence action, test C (Table C6); details: visual scoring after about 3 weeks, 100% = plants have died, 0% = like control plants
Procedure, shortened: as §1

[7] = system: Echinochloa crus-galli (ECHCG); assay: Herbicidal pre-emergence action, test C (Table C1); details: visual scoring after about 3 weeks, 100% = plants have died, 0% = like control plants
Procedure, shortened: as §1

[8] = system: Stellaria media (STEME); assay: Herbicidal post-emergence action (Table B8); details: visual rating about 3 weeks after treatment, 100% = plants have died, 0% = like control plants
Procedure, shortened: as §2

[9] = system: Lolium rigidum (LOLRI); assay: Herbicidal post-emergence action (Table B2); details: rated visually after about 3 weeks, 100% = plants have died, 0% = like control plants
Method: Seeds of mono- and dicotyledonous weed plants were placed in plastic pots in sandy loam soil (doubly sown with in each case one species of mono- or dicotyledonous weed plants per pot), covered with soil and cultivated in a greenhouse under controlled growth conditions. 2 to 3 weeks after sowing, the test plants were treated at the one-leaf stage. The compounds of the invention, formulated in the form of wettable powders (WP) or as emulsion concentrates (EC), were applied onto the green parts of the plants as aqueous suspension or emulsion with addition of 0.5% additive at a water application rate of 600 liters per hectare (converted). After the test plants had been kept in the greenhouse under optimum growth conditions for about 3 weeks, the activity of the preparations was rated visually in comparison to untreated controls. For example, 100% activity=the plants have died, 0% activity=like control plants. Tables B1 to B12 below show the effects of selected compounds of the general formula (I) according to Table 1 on various harmful plants and an application rate corresponding to 1280 or 320 g/ha, which were obtained by the experimental procedure mentioned above.

[10] = system: Setaria viridis (SETVI); assay: Herbicidal post-emergence action (Table B4); details: rated visually after about 3 weeks, 100% = plants have died, 0% = like control plants
Procedure, shortened: as §2

[11] = system: Abutilon theophrasti (ABUTH); assay: Herbicidal post-emergence action (Table B5); details: rated visually after about 3 weeks, 100% = plants have died, 0% = like control plants
Procedure, shortened: as §2

[12] = system: Poa annua (POAAN); assay: Herbicidal post-emergence action (Table B3); details: rated visually after about 3 weeks, 100% = plants have died, 0% = like control plants
Procedure, shortened: as §2

[13] = system: Stellaria media (STEME); assay: Herbicidal pre-emergence action, test C (Table C8); details: visual scoring after about 3 weeks, 100% = plants have died, 0% = like control plants
Procedure, shortened: as §1

[14] = system: harmful plants ABUTH, AMARE, ECHCG, LOLRI, MATIN, POAAN, SETVI, STEME, ALOMY, DIGSA, KCHSC and VERPE; assay: Herbicidal pre-emergence action (test C), summary of Tables C1-C12; details: application rate of 1280 or 320 g of active ingredient per hectare; summary in words
Procedure, shortened: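 Visual % damage versus untreated plants (0% = like control, 100% = died) was scored after about 3 weeks in the greenhouse. Before emergence, seeds sown in sandy loam got a soil-surface spray of compound as WP or EC plus 0.5% additive, using 600 L/ha water at rates of 1280 or 320 g/ha.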

[15] = system: Echinochloa crus-galli (ECHCG); assay: Herbicidal post-emergence action (Table B1); details: rated visually after about 3 weeks, 100% = plants have died, 0% = like control plants
Procedure, shortened: as §2

[16] = system: harmful plants ABUTH, AMARE, ECHCG, LOLRI, MATIN, POAAN, SETVI, STEME, ALOMY, DIGSA, KCHSC and VERPE; assay: Herbicidal post-emergence action, summary of Tables B1-B12; details: application rate of 1280 or 320 g of active ingredient per hectare; summary in words
Procedure, shortened: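 Activity scored by eye roughly 3 weeks post-treatment against untreated plants, from 0% (no effect) to 100% (plants dead). Application rates were 1280 or 320 g/ha, as aqueous WP/EC spray plus 0.5% additive at 600 L/ha, onto one-leaf-stage weeds grown 2–3 weeks in sandy loam.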

Row | SMILES | Pre-emergence action against Poa annua (POAAN) ([1]; dosage 320 g/ha) [%] | Pre-emergence action against Poa annua (POAAN) ([1]; dosage 1280 g/ha) [%] | Pre-emergence action against Setaria viridis (SETVI) ([2]; dosage 320 g/ha) [%] | Pre-emergence action against Setaria viridis (SETVI) ([2]; dosage 1280 g/ha) [%] | Post-emergence action against Amaranthus retroflexus (AMARE) ([3]; dosage 320 g/ha) [%] | Post-emergence action against Amaranthus retroflexus (AMARE) ([3]; dosage 1280 g/ha) [%] | Pre-emergence action against Lolium rigidum (LOLRI) ([4]; dosage 1280 g/ha) [%] | Pre-emergence action against Abutilon theophrasti (ABUTH) ([5]; dosage 320 g/ha) [%] | Pre-emergence action against Abutilon theophrasti (ABUTH) ([5]; dosage 1280 g/ha) [%] | Pre-emergence action against Amaranthus retroflexus (AMARE) ([6]; dosage 320 g/ha) [%] | Pre-emergence action against Amaranthus retroflexus (AMARE) ([6]; dosage 1280 g/ha) [%] | Pre-emergence action against Echinochloa crus-galli (ECHCG) ([7]; dosage 320 g/ha) [%] | Pre-emergence action against Echinochloa crus-galli (ECHCG) ([7]; dosage 1280 g/ha) [%] | Post-emergence action against Stellaria media (STEME) ([8]; dosage 320 g/ha) [%] | Post-emergence action against Stellaria media (STEME) ([8]; dosage 1280 g/ha) [%] | Post-emergence action against Lolium rigidum (LOLRI) ([9]; 320 g/ha) [%] | Post-emergence action against Lolium rigidum (LOLRI) ([9]; 1280 g/ha) [%] | Post-emergence action against Setaria viridis (SETVI) ([10]; 320 g/ha) [%] | Post-emergence action against Setaria viridis (SETVI) ([10]; 1280 g/ha) [%] | Post-emergence action against Abutilon theophrasti (ABUTH) ([11]; 320 g/ha) [%] | other results
1 | Fc1cccc(Oc2ccc(Cl)cn2)c1-c1cc(C(F)F)no1 [Example 1-17] | 100 | 100 | 100 | 100 | 100 | 100 | 100 | 100 | 100 | 100 | 100 | 90 | 100 | 100 | 100 | 100 | 100 | 100 | 100 | 100 | Pre-emergence action against Lolium rigidum (LOLRI) ([4]; dosage 320 g/ha): 100%; Post-emergence action against Abutilon theophrasti (ABUTH) ([11]; 1280 g/ha): 100%; Post-emergence action against Poa annua (POAAN) ([12]; 320 g/ha): 100%; Post-emergence action against Poa annua (POAAN) ([12]; 1280 g/ha): 100%; Pre-emergence action against Stellaria media (STEME) ([13]; dosage 320 g/ha): 100%; Pre-emergence action against Stellaria media (STEME) ([13]; dosage 1280 g/ha): 100%; herbicidal activity against the harmful plants of Tables C1-C12 in pre-emergence treatment [14]: very good herbicidal activity; Post-emergence action against Echinochloa crus-galli (ECHCG) ([15]; 320 g/ha): 100%; Post-emergence action against Echinochloa crus-galli (ECHCG) ([15]; 1280 g/ha): 100%; herbicidal activity against the harmful plants of Tables B1-B12 in post-emergence treatment [16]: very good herbicidal activity
2 | Cc1cccc(Oc2ccc(Cl)cn2)c1-c1cc(C(F)F)no1 [Example 1-18, 5-[2-[(5-Chloro-2-pyridyl)oxy]-6-methylphenyl]-3-(difluoromethyl)isoxazole] | 90 | 100 | 100 | 100 | 100 | 100 | 90 | 100 | 100 | 100 | 100 | 90 | 100 | 100 | 100 | 90 | 100 | 100 | 100 | 100 | Post-emergence action against Abutilon theophrasti (ABUTH) ([11]; 1280 g/ha): 100%; Post-emergence action against Poa annua (POAAN) ([12]; 320 g/ha): 100%; Post-emergence action against Poa annua (POAAN) ([12]; 1280 g/ha): 100%; Pre-emergence action against Stellaria media (STEME) ([13]; dosage 320 g/ha): 100%; Pre-emergence action against Stellaria media (STEME) ([13]; dosage 1280 g/ha): 100%; herbicidal activity against the harmful plants of Tables C1-C12 in pre-emergence treatment [14]: very good herbicidal activity; Post-emergence action against Echinochloa crus-galli (ECHCG) ([15]; 320 g/ha): 100%; Post-emergence action against Echinochloa crus-galli (ECHCG) ([15]; 1280 g/ha): 100%; herbicidal activity against the harmful plants of Tables B1-B12 in post-emergence treatment [16]: very good herbicidal activity
